Each block holds one compound with its values, some of them ahead of it.
Assays:
Settings in all cases: binder
BIKE = BIKE (Homo sapiens, UniProt Q9NSY1)
CaMK1d = CaMK1d (Homo sapiens, UniProt Q8IU85)
DRAK2 = molecular target: T1, DRAK2 (Homo sapiens, UniProt O94768)
T1 sequence (O94768 1-372): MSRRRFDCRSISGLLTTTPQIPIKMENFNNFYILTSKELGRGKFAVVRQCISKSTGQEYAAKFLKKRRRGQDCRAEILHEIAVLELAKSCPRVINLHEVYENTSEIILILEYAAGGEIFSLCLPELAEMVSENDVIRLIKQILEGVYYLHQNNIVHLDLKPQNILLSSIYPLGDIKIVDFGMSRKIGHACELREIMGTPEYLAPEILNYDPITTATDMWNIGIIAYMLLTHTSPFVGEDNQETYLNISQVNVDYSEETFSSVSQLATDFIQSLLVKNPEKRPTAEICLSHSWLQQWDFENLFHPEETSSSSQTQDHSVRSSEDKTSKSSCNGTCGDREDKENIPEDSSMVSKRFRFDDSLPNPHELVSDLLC

DYRK2 = molecular target: T2, DYRK2 (Homo sapiens, UniProt Q92630)
T2 sequence (Q92630 1-601): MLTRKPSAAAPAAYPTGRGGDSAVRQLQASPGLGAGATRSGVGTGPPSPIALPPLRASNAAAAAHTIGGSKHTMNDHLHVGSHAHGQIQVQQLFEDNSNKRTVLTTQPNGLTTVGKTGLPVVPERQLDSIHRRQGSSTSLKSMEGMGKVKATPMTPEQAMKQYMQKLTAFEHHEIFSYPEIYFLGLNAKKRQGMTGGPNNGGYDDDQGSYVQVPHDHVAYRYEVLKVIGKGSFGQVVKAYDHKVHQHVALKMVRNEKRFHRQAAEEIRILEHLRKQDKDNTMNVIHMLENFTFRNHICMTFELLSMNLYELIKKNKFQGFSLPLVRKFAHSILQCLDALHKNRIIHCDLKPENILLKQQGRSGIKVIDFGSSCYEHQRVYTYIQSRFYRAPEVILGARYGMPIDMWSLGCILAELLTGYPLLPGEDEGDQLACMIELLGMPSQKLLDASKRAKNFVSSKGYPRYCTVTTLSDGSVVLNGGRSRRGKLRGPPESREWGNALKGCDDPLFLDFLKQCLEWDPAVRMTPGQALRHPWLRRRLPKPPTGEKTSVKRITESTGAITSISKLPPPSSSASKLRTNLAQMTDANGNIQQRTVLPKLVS

FGFR2 = FGFR2 (Homo sapiens, UniProt P21802)
FGFR2, sequence (P21802 whole entry): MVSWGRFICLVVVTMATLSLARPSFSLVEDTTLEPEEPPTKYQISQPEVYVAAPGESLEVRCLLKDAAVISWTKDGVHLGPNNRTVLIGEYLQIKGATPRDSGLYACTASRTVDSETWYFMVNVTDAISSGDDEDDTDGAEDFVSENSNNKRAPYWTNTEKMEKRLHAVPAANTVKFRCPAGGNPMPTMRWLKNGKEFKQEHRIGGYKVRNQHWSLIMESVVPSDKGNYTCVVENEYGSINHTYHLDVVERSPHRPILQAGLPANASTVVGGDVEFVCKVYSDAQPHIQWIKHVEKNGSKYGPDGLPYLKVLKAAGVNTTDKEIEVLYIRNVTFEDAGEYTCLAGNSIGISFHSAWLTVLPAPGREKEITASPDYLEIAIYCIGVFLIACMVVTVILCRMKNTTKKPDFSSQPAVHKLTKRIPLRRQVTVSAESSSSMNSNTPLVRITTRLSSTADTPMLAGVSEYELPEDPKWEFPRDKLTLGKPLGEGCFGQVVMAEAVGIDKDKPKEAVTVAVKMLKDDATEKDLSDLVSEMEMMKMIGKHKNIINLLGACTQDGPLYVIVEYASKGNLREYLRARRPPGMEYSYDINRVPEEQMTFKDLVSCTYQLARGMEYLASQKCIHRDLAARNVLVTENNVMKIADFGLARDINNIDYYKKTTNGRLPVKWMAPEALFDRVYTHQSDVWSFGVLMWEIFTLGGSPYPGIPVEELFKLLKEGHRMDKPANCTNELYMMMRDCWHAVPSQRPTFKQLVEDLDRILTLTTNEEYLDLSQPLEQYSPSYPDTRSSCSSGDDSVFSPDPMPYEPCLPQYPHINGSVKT

GPRK5 = GPRK5 (Homo sapiens, UniProt P34947)
GPRK5, sequence (P34947 whole entry): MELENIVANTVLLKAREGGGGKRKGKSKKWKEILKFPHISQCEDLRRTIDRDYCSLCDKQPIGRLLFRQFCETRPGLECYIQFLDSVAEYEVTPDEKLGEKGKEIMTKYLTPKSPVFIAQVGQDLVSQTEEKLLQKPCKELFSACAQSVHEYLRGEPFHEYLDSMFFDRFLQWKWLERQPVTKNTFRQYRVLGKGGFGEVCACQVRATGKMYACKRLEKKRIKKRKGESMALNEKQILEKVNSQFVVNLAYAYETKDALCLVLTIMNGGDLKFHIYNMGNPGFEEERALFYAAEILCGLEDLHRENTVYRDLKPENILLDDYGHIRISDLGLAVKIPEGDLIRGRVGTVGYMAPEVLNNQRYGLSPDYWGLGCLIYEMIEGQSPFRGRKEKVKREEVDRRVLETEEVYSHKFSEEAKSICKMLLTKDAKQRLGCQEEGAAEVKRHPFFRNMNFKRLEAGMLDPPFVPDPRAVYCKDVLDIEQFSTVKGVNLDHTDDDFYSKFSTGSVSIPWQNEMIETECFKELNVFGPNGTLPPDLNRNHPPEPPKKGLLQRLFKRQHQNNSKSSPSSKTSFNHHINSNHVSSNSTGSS

MYT1 = molecular target: T3, MYT1 (Homo sapiens, UniProt Q99640)
T3 sequence (Q99640 1-499): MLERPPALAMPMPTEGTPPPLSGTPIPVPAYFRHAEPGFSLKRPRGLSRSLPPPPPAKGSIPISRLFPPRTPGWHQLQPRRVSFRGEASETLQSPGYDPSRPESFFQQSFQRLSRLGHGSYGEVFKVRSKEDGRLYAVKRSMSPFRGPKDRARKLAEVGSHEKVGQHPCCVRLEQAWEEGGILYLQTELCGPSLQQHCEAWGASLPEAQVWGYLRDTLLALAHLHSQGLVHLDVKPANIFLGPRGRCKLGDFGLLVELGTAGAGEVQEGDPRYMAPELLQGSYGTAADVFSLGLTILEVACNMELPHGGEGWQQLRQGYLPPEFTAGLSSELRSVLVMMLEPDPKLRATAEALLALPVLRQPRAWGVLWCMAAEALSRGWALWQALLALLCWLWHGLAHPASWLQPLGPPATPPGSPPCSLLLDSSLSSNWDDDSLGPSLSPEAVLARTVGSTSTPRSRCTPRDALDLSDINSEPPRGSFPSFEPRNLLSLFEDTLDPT

PAK1 = PAK1 (Homo sapiens, UniProt Q13153)
PAK1, sequence (Q13153 whole entry): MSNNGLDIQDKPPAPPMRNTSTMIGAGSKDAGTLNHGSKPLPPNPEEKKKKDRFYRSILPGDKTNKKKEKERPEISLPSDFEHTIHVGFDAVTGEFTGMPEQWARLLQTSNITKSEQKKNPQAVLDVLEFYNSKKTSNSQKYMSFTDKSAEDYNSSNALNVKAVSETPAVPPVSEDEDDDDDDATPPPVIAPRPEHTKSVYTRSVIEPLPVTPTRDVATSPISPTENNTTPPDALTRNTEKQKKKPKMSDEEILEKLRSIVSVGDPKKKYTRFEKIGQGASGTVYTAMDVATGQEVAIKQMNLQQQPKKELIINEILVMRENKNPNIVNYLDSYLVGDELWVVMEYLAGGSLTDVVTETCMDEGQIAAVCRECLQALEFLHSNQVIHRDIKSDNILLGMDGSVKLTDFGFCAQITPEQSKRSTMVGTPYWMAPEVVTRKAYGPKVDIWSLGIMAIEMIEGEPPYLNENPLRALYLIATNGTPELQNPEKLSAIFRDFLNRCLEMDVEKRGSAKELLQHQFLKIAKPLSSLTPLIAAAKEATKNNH

MST1 = molecular target: T4, MST1 (Homo sapiens, UniProt Q13043)
T4 sequence (Q13043 1-487): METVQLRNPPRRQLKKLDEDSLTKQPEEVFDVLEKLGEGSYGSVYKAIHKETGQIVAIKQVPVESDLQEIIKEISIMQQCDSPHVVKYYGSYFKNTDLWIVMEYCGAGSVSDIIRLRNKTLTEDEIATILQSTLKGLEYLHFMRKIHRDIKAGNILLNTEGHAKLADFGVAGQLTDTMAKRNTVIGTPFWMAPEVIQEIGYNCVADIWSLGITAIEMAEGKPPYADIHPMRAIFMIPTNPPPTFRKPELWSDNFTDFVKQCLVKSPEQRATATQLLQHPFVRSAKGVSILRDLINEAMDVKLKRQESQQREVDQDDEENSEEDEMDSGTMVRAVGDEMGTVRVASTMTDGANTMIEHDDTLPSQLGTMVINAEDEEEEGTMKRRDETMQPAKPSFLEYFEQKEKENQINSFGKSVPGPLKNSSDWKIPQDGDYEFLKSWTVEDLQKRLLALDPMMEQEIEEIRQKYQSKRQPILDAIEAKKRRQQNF

MST3 = MST3 (Homo sapiens, UniProt Q9Y6E0)
MST3, sequence (Q9Y6E0 whole entry): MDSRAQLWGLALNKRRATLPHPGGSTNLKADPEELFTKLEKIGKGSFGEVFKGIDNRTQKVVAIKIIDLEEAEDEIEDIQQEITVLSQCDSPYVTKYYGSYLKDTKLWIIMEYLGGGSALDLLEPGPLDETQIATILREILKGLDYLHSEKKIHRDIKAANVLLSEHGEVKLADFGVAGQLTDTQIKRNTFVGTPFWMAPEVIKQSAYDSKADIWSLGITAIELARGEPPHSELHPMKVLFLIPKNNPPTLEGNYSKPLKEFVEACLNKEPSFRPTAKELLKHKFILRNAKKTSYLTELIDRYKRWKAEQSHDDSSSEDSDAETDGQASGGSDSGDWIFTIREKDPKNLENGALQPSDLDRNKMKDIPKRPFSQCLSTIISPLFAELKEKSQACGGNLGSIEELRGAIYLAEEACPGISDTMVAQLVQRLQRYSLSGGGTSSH

CaMK1d, sequence (Q8IU85 whole entry): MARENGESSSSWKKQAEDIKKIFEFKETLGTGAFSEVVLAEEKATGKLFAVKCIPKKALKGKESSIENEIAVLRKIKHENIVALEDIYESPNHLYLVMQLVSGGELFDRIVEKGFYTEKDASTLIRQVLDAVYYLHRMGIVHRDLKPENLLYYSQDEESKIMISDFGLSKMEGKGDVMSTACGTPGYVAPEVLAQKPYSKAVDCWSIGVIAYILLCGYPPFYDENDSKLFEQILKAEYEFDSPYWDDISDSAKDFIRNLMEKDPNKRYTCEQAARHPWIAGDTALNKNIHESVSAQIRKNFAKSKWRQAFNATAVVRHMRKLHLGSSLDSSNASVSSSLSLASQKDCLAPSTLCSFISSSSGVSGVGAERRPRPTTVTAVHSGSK
BIKE, sequence (Q9NSY1 whole entry): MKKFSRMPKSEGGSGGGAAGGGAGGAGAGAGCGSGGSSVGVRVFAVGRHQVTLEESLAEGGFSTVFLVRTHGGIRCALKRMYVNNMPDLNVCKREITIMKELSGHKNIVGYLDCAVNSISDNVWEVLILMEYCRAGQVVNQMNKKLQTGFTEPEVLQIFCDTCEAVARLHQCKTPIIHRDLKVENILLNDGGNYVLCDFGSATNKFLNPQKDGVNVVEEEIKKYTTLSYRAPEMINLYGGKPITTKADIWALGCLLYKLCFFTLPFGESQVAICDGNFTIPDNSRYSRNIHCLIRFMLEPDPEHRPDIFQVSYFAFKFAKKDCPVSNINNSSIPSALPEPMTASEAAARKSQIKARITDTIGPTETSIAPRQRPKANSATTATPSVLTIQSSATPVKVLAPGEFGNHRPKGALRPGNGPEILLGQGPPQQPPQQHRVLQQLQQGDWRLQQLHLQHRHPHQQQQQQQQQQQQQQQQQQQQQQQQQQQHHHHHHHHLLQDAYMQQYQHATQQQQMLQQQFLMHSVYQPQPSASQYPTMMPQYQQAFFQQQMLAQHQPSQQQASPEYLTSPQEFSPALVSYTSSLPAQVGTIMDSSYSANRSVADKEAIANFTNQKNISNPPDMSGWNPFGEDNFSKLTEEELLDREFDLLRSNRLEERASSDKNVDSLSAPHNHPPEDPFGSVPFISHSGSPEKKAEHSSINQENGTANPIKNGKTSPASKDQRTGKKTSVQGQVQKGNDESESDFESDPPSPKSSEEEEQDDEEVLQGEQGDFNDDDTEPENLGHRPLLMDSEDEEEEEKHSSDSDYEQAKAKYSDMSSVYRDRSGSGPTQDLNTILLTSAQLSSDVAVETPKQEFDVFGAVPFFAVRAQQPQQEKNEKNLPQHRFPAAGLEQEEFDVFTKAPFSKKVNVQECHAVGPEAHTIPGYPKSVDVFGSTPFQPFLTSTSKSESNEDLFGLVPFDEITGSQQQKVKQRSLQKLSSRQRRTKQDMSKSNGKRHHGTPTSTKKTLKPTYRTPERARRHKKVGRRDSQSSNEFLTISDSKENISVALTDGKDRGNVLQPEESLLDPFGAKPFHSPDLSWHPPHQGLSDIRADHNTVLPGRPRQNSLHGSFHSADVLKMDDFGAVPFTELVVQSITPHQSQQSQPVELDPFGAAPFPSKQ

Structure (SMILES): CNc1ncc2cc(-c3ccc(-c4cccc(C)n4)cc3Cl)c(=O)n(CCCCN)c2n1 [compound 20, MRLW5]
ΔTm MRLW5 (20) (BIKE): 3.7 °C
ΔTm MRLW5 (20) (CaMK1d): 7.2 °C
ΔTm MRLW5 (20) (DRAK2): 0.7 °C
ΔTm MRLW5 (20) (DYRK2): -0.1 °C
ΔTm MRLW5 (20) (FGFR2): 1.9 °C
ΔTm MRLW5 (20) (GPRK5): 0.5 °C
ΔTm MRLW5 (20) (MYT1): -1.0 °C
ΔTm MRLW5 (20) (PAK1): 7.5 °C
dTm MST1 (MST1): 5.6 °C
dTm MST3 (MST3): 11.7 °C

Structure (SMILES): Cc1cccc(-c2ccc(-c3cc4cnc(NCCCN5CCOCC5)nc4n(CCCCN)c3=O)c(Cl)c2)n1 [compound 26, MR26]
ΔTm MR26 (26) (BIKE): 0.7 °C
ΔTm MR26 (26) (CaMK1d): 4.1 °C
ΔTm MR26 (26) (DRAK2): 5.1 °C
ΔTm MR26 (26) (DYRK2): -0.2 °C
ΔTm MR26 (26) (FGFR2): 1.4 °C
ΔTm MR26 (26) (GPRK5): -0.5 °C
ΔTm MR26 (26) (MYT1): -1.1 °C
ΔTm MR26 (26) (PAK1): 5.7 °C

Structure (SMILES): Cc1cccc(-c2ccc(-c3cc4cnc(NC(CO)CO)nc4n(CCCCN)c3=O)c(Cl)c2)n1 [compound 24, 8-(4-Aminobutyl)-6-(2-chloro-4-(6-methylpyridin-2-yl)phenyl)-2-((1,3-dihydroxypropan-2-yl)amino)pyrido[2,3-d]pyrimidin-7(8H)-one]
ΔTm MR24 (24) (BIKE): -0.4 °C
ΔTm MR24 (24) (CaMK1d): 0.5 °C
ΔTm MR24 (24) (DRAK2): 2.9 °C
ΔTm MR24 (24) (DYRK2): -0.3 °C
ΔTm MR24 (24) (FGFR2): 0.8 °C
ΔTm MR24 (24) (GPRK5): -1.0 °C
ΔTm MR24 (24) (MYT1): -2.0 °C
ΔTm MR24 (24) (PAK1): 6.9 °C

Second part, the compound after the results:

ΔTm 22 (BIKE): 7.1 °C
ΔTm 22 (CaMK1d): 8.5 °C
ΔTm 22 (DRAK2): 2.7 °C
ΔTm 22 (DYRK2): -0.4 °C
ΔTm 22 (FGFR2): 3.9 °C
ΔTm 22 (GPRK5): -1.4 °C
ΔTm 22 (MYT1): -4.0 °C
ΔTm 22 (PAK1): 8.6 °C
dTm MST1 (MST1): 6.0 °C
dTm MST3 (MST3): 10.5 °C
Structure (SMILES): CNc1ncc2cc(-c3ccc(-c4cccc(C)n4)cc3Cl)c(=O)n(CCC3CCNCC3)c2n1 [compound 22, 6-(2-Chloro-4-(6-methylpyridin-2-yl)phenyl)-2-(methylamino)-8-(2-(piperidin-4-yl)ethyl)pyrido[2,3-d]pyrimidin-7(8H)-one]

ΔTm 25 (BIKE): 1.8 °C
ΔTm 25 (CaMK1d): 5.3 °C
ΔTm 25 (DRAK2): 7.5 °C
ΔTm 25 (DYRK2): -0.6 °C
ΔTm 25 (FGFR2): 1.7 °C
ΔTm 25 (GPRK5): 0.6 °C
ΔTm 25 (MYT1): -2.3 °C
ΔTm 25 (PAK1): 8.3 °C
Structure (SMILES): Cc1cccc(-c2ccc(-c3cc4cnc(NCCCc5ccc(N)cc5)nc4n(CCCCN)c3=O)c(Cl)c2)n1 [compound 25, 8-(4-Aminobutyl)-2-((3-(4-aminophenyl)propyl)amino)-6-(2-chloro-4-(6-methylpyridin-2-yl)phenyl)pyrido[2,3-d]pyrimidin-7(8H)-one]

ΔTm 23 (BIKE): 6.9 °C
ΔTm 23 (CaMK1d): 9.5 °C
ΔTm 23 (DRAK2): 1.7 °C
ΔTm 23 (DYRK2): -0.2 °C
ΔTm 23 (FGFR2): 2.9 °C
ΔTm 23 (GPRK5): 0.3 °C
ΔTm 23 (MYT1): -0.9 °C
ΔTm 23 (PAK1): 8.9 °C
dTm MST1 (MST1): 7.9 °C
dTm MST3 (MST3): 10.8 °C
Structure (SMILES): CNc1ncc2cc(-c3ccc(-c4cccc(C)n4)cc3Cl)c(=O)n(C[C@H]3CC[C@H](N)CC3)c2n1 [compound 23, 23]

From paper doi:10.1101/2023.11.24.568596v1 (biorxiv, 2023)
